Data as given in ChEMBL document CHEMBL1201862, “PubChem BioAssay data set” (2004).
Activity calls are given as the source filed them.

How the values were obtained:
[1] = Counterscreen for antagonists of the orexin 1 receptor (OX1R; HCRTR1): Fluorescence-based cell-based high throughput dose response assay to identify antagonists of the parental CHO cell line. [Related pubchem assays (depositor defined):AID434989, AID435008, AID463079, AID485270, AID492963, AID492964, AID492965, AID493232, AID504699, AID504701]; format: functional
CHO-K1 = assay: Counterscreen for antagonists of the orexin 1 receptor (OX1R; HCRTR1): Homogeneous time resolved fluorescence (HTRF)-based cell-based dose response assay to identify antagonists of the parental CHO-K1 cell line. [Related pubchem assays (depositor defined):AID434989, AID435008, AID463079, AID485270, AID492963, AID492964, AID492965, AID493232, AID504699, AID504701]; format: functional; conditions: Cricetulus griseus;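 also: potency for inhibition of ATP-stimulated IP1 production as antagonists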
Orexin receptor type 2 [2] = target: T1, Orexin receptor type 2 (Homo sapiens, UniProt O43614); assay: Counterscreen assay for antagonists of the orexin 1 receptor (OX1R; HCRTR1): Fluorescence-based cell-based dose response assay for antagonists of the orexin 2 receptor (OX2R; HCRTR2), run by assay provider.; format: functional
T1 sequence (O43614 whole entry): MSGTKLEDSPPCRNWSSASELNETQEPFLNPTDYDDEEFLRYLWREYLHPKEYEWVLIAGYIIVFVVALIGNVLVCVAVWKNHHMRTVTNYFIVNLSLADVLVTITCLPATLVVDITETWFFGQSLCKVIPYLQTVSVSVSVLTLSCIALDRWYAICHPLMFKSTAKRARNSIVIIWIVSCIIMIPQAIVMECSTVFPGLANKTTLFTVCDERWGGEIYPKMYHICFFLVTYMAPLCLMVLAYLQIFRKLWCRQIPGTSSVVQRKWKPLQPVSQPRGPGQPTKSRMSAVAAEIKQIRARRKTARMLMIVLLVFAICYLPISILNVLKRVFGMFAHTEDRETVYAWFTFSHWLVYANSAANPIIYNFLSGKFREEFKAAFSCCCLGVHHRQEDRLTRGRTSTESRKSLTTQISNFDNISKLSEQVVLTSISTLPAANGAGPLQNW

[3] = target: T2, Orexin/Hypocretin receptor type 1 (Homo sapiens, UniProt O43613); assay: Homogeneous Time Resolved Fluorescence (HTRF)-based cell-based high throughput dose response assay for antagonists of the orexin 1 receptor (OX1R; HCRTR1). [Related pubchem assays (depositor defined):AID434989, AID435008, AID463079, AID485270, AID492963, AID492964, AID492965, AID493232, AID504717, AID504718]; format: functional
T2 sequence (O43613 whole entry): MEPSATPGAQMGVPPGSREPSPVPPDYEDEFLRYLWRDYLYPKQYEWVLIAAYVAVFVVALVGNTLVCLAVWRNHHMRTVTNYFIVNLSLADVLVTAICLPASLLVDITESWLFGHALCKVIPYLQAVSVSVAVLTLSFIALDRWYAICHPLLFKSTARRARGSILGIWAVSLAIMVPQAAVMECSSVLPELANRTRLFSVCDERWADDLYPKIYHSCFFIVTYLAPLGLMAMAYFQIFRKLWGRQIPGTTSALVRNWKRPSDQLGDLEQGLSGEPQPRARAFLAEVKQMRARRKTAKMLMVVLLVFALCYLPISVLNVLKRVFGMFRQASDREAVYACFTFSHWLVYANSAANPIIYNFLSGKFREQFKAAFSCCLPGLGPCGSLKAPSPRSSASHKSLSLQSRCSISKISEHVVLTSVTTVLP

Orexin receptor type 2 [4] = target: T1, Orexin receptor type 2; assay: Counterscreen assay for antagonists of the orexin 1 receptor (OX1R; HCRTR1): Homogeneous Time Resolved Fluorescence (HTRF)-based cell-based dose response assay for antagonists of the orexin 2 receptor (OX2R; HCRTR2), run by assay provider.; format: functional
[5] = target: T2, Orexin/Hypocretin receptor type 1; assay: Fluorescence-based cell-based high throughput dose response assay for antagonists of the orexin 1 receptor (OX1R; HCRTR1). [Related pubchem assays (depositor defined):AID434989, AID435008, AID463079, AID485270, AID492963, AID492964, AID492965, AID493232, AID504717, AID504718]; format: functional
HEK293 [6] = assay: HEK cell cytotoxicity by LDH release, dose response, cytotoxicity control for IDE activator project, fluorescence, HEK cells (AID 588440); format: functional, cell-based; conditions: Homo sapiens;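 also: cytotoxicity by LDH release measuring loss of membrane integrity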
[7] = HepG2 cell cytotoxicity, dose response, cytotoxicity control, plate reader, cherry-pick, antagonist series (AID 743416); format: functional, cell-based
[8] = C. albicans growth with fluconazole, confirmation, fluorescence, retest (AID 2467); format: functional, cell-based
[9] = tested on: Streptococcus sp. 'group A'; assay: growth inhibition of control SK(-) GAS strain, dose response, counter-screen for streptokinase expression inhibitor project, luminescence, kanamycin, BacTiterGlo, confirmation (AID 1900); format: functional, organism-based
Insulin-degrading enzyme [10] = target: T3, Insulin-degrading enzyme (Homo sapiens, UniProt P14735); assay: activators of recombinant IDE enzyme, dose response, counter-screen for IDE activator project, biochemical, fluorescence polarization (AID 588681)
T3 sequence (P14735 whole entry): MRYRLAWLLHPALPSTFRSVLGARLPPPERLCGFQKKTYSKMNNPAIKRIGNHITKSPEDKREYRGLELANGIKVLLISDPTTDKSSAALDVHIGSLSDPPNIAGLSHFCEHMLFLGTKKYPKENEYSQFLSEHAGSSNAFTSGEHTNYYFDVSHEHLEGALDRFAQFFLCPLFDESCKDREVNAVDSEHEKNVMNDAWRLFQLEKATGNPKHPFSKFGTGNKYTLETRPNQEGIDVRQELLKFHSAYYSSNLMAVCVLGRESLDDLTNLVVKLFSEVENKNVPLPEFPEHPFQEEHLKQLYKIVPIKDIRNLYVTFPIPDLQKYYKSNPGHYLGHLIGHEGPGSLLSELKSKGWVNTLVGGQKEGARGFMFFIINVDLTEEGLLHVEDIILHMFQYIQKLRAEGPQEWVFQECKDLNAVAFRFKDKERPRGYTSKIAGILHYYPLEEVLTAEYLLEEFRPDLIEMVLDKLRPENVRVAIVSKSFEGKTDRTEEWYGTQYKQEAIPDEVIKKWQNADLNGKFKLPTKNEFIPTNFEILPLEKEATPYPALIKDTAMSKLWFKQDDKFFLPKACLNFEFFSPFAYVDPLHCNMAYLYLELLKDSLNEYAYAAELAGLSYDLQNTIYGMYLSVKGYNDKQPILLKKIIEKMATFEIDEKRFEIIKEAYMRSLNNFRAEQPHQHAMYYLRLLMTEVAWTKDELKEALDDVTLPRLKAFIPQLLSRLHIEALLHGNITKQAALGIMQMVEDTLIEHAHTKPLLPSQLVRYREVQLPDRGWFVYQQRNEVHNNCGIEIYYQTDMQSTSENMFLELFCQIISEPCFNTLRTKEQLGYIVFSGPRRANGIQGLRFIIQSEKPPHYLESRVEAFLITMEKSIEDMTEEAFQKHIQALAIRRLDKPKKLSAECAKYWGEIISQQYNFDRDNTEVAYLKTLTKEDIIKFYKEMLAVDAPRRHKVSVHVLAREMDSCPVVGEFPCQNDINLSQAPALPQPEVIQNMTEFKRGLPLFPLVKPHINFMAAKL

[11] = inhibitors of firefly luciferase expression or activity, dose response, H4 neuroglioma cells, luminescence (AID 1990); format: functional, cell-based
HEK293 [12] = assay: optical interference in Abeta FP readout, dose response, artefact control for IDE activator project, biochemical, fluorescence polarization (AID 588442); format: functional, cell-based; conditions: Homo sapiens
Paired box protein Pax-8 = Paired box protein Pax-8 (Homo sapiens, UniProt Q06710); assay: inhibitors of PAX8-driven TPO luciferase reporter, dose response, RMG-I cells, cherry-pick (AID 687027); format: functional, cell-based;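 also: luciferase reporter driven by Pax8 target thyroperoxidase promoter measured by SteadyGlo luminescence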
Paired box protein Pax-8, sequence (Q06710 whole entry): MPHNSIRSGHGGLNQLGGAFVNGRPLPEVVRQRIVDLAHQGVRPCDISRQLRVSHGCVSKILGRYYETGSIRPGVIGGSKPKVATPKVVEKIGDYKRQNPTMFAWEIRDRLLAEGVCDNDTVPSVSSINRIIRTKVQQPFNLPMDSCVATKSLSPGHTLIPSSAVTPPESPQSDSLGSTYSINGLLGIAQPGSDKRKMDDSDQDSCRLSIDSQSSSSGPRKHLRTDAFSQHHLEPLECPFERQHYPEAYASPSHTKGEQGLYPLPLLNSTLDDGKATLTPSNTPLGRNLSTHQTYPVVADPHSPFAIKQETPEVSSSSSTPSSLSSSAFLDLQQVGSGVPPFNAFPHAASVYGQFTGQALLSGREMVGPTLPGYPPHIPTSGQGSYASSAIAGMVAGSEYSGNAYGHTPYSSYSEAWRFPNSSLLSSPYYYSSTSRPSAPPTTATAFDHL

[13] = cytotoxicity in HEK-293T cells, dose response, cytotoxicity control for TCR NF-kB inhibitor project, luminescence, T-cell screen hits (AID 489026); format: functional, cell-based;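 also: cells exposed to compound about 14 hours before the viability readout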
[14] = inhibitors of SNCA 5'UTR-driven reporter translation, confirmation, H4 neuroglioma cells, luminescence (AID 1988); format: functional, cell-based
[15] = target: T4, Ubiquitin-conjugating enzyme E2 N (Homo sapiens, UniProt P61088); format: functional;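 also: Dose-response confirmation in a TR-FRET assay detecting UBC13-driven polyubiquitin chain formation, inhibition measured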
T4 sequence (P61088 whole entry): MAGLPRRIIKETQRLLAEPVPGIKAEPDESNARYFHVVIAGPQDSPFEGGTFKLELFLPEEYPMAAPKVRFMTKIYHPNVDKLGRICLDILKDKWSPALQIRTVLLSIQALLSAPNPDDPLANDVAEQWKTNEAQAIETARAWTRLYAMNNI

[16] = NIH-3T3 fibroblast cytotoxicity, dose response, cytotoxicity control, cell-based, fluorescence, Alamar Blue, secondary assay (AID 2327); format: functional;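 also: NIH-3T3 mouse fibroblasts cultured with fluconazole at 8 µg/mL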
INS1 = assay: beta cell apoptosis inhibitors, cytokine rescue, dose response, luminescence, retest (AID 449756); format: functional, cell-based; conditions: Rattus norvegicus;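 also: cell death triggered by IL-1 beta plus TNF-alpha plus IFN-gamma mixture; protective hits raise ATP signal compared with cytokine alone wells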
Streptococcus = assay: Group A Streptococcus viability loss, dose response, counter-screen for streptokinase expression inhibitor project, luminescence, BacTiterGlo (AID 1915); format: functional, organism-based;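 also: potency for reduction of bacterial viability or growth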
[17] = MC4R antagonists, dose response, counter-screen for LGR2 antagonist project, cell-based, plate reader, cherry pick (AID 743444); format: functional;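 also: transfected HEK 293 cells stimulated with alpha-MSH peptide; potency of inhibitors of the alpha-MSH evoked signal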
[18] = LGR2 antagonists, dose response, cell-based, HEK293, CRE-luciferase reporter, cherry pick, set 2 (AID 743343); format: functional;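 also: transfected cells were stimulated with diluted bursicon conditioned medium after compound addition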
BJ [19] = assay: cells; format: functional, cell-based; conditions: Homo sapiens
[20] = cytotoxicity toward DRD oncogenic fibroblasts, dose response, cell-based, non-viral oncogenic, luminescence (AID 1934); format: functional; conditions: Homo sapiens
BJ [21] = assay: cytotoxicity toward BJ-TERT-LT-ST fibroblasts, dose response, cell-based, RAS-independent, luminescence (AID 1935); format: functional; conditions: Homo sapiens;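 also: BJ fibroblasts immortalized with TERT plus LT and ST oncogenes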
Insulin-degrading enzyme [22] = target: T3, Insulin-degrading enzyme; assay: activators of endogenous IDE in HEK cells, dose response, cell-based, fluorescence polarization (AID 588439); format: functional
[23] = Luminescence Cell-Based Dose Response HTS to Identify Inhibitors of 5'UTR Stem-Loop Driven Prion Protein mRNA Translation in H4 Neuroglioblastoma Cells. [Related pubchem assays: 1827 (Project Summary), 1813 (Primary HTS)]; format: functional
[24] = inhibitors of PGC1a acetylation in cells, dose response, cell-based, cherry-picked samples (AID 720514); format: functional;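 also: potency may reflect raised or lowered acetylation signal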
BJ [25] = assay: cytotoxicity toward Ras-transformed BJeLR fibroblasts, dose response, cell-based, alamar blue fluorescence, cherrypicked samples (AID 2631); format: functional; conditions: Homo sapiens;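 also: confirmatory dose-response assay in RAS-dependent BJ fibroblasts engineered with TERT, LT and ST, with cytotoxicity read by fluorescence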
[26] = A549 cell cytotoxicity, dose response, cytotoxicity control, plate reader, cherry-pick, antagonist series (AID 743412); format: functional, cell-based
BJ [27] = assay: cytotoxicity toward BJ-TERT fibroblasts, dose response, cell-based, RAS-independent, luminescence (AID 1933); format: functional; conditions: Homo sapiens
[28] = HEK293 cell cytotoxicity, dose response, cytotoxicity control, plate reader, cherry-picked samples (AID 743446); format: functional, cell-based
[29] = target: T5, Calpain-2 catalytic subunit (Sus scrofa, UniProt P43367); assay: pig calpain II inhibitor potency, dose response, biochemical, fluorogenic peptide substrate (AID 1420); format: functional
T5 sequence (P43367 whole entry): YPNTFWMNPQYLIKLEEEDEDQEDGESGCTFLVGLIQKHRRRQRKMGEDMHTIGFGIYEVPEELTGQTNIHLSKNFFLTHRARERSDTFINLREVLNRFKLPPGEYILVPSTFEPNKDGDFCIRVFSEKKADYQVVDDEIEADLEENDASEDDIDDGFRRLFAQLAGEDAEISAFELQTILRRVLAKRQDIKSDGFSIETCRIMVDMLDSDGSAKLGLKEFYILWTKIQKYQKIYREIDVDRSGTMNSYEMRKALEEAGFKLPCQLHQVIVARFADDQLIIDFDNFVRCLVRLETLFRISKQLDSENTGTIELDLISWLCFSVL

N#CC(=C1CCCC1)c1nc(-c2ccccc2O)cs1
IC50 [1]: > 49.7 µM (inactive)
IC50 (CHO-K1): > 66.2 µM (inactive)
IC50 (Orexin receptor type 2 [2]): 31.6 µM (inactive)
IC50 [3]: 6.33 µM (active)
IC50 (Orexin receptor type 2 [4]): 19.8 µM (inactive)
IC50 [5]: 6.43 µM (active)

CNC[C@@H](CC1CCCCC1)NC[C@H](CC(C)C)NCCc1cccc(C(F)(F)F)c1
IC50 (HEK293 [6]): 6.35 µM (active)
AC50 [7]: 3.86 µM (active)
EC50 [8]: > 38 µM (not active)
EC50 [9]: 2.79 µM (active)
EC50 (Insulin-degrading enzyme [10]): > 54.7 µM (inactive)
EC50 [11]: > 120 µM (not active)
EC50 (HEK293 [12]): > 54.7 µM (inactive)
AC50 (Paired box protein Pax-8): 9.93 µM (active)
IC50 [13]: 29 µM (inactive)
EC50 [14]: 7.84 µM (active)
IC50 [15]: > 20 µM (inactive)
EC50 [16]: 7.53 µM (inconclusive)
AC50 (INS1): 3.59 µM (active)
EC50 (Streptococcus): 9.26 µM (active)
AC50 [17]: 22.5 µM (active)
AC50 [18]: 14.6 µM (active)
EC50 (BJ [19]): 7.22 µM (inconclusive)
EC50 [20]: 4.69 µM (active)
EC50 (BJ [21]): 2.08 µM (active)
EC50 (Insulin-degrading enzyme [22]): 6.62 µM (active)
EC50 [23]: 8.87 µM (active)
AC50 [24]: 3.24 µM (active)
EC50 (BJ [25]): 1.86 µM (inconclusive)
AC50 [26]: 4.66 µM (active)
EC50 (BJ [27]): 2.66 µM (inconclusive)
AC50 [28]: 7.81 µM (active)

O=C(CSc1ccc(-c2ccccc2)nn1)c1cccs1
IC50 [1]: > 49.8 µM (inactive)
IC50 [29]: > 50 µM (not active)
IC50 (CHO-K1): > 66.2 µM (inactive)
IC50 (Orexin receptor type 2 [2]): > 88.8 µM (inactive)
IC50 [3]: 1.08 µM (active)
IC50 (Orexin receptor type 2 [4]): > 50 µM (inactive)
IC50 [5]: 3.37 µM (active)
